Assay results as given in ChEMBL document CHEMBL4346757, “Synthesis and biological evaluation of 7-methoxy-1-(3,4,5-trimethoxyphenyl)-4,5-dihydro-2H-benzo[e]indazoles as new colchicine site inhibitors” (Bioorg Med Chem Lett, 2019).

Legend:
Type in all cases: functional
[1] = test system: A498; test: Growth inhibition of human A498 cells assessed as cell growth at 1 uM after 48 hrs by SRB assay relative to control; conditions: A498, 48 h, read-out: Activity
[2] = test system: SK-MEL-28; test: Growth inhibition of human SK-MEL-28 cells assessed as cell growth at 100 uM after 48 hrs by SRB assay relative to control; conditions: SK-MEL-28, 48 h, read-out: Activity
[3] = test system: RPMI-8226; test: Cytotoxicity against human RPMI8226 cells assessed as growth inhibition after 48 hrs by SRB assay; conditions: RPMI-8226, 48 h
[4] = test system: KM12; test: Growth inhibition of human KM12 cells assessed as cell growth at 100 uM after 48 hrs by SRB assay relative to control; conditions: KM12, 48 h, read-out: Activity
[5] = test system: ACHN; test: Cytotoxicity against human ACHN cells assessed as growth inhibition after 48 hrs by SRB assay
[6] = test system: SK-OV-3; test: Cytotoxicity against human SKOV3 cells assessed as growth inhibition after 48 hrs by SRB assay; conditions: SK-OV-3, 48 h
[7] = test system: RXF 393; test: Growth inhibition of human RXF393 cells assessed as cell growth at 10 uM after 48 hrs by SRB assay relative to control; conditions: RXF 393, 48 h, read-out: Activity
[8] = test system: SR; test: Growth inhibition of human SR cells assessed as cell growth at 0.01 uM after 48 hrs by SRB assay relative to control; conditions: read-out: Activity
[9] = test system: KM12; test: Growth inhibition of human KM12 cells assessed as cell growth at 0.1 uM after 48 hrs by SRB assay relative to control; conditions: KM12, 48 h, read-out: Activity
[10] = test system: MCF7; test: Growth inhibition of human MCF7 cells assessed as cell growth at 0.1 uM after 48 hrs by SRB assay relative to control; conditions: MCF7, 48 h, read-out: Activity
[11] = test system: UACC-257; test: Growth inhibition of human UACC257 cells assessed as cell growth at 100 uM after 48 hrs by SRB assay relative to control; conditions: UACC-257, 48 h, read-out: Activity
[12] = test system: COLO 205; test: Growth inhibition of human COLO205 cells assessed as cell growth at 100 uM after 48 hrs by SRB assay relative to control; conditions: COLO 205, 48 h, read-out: Activity
[13] = test system: HOP-62; test: Growth inhibition of human HOP62 cells assessed as cell growth at 100 uM after 48 hrs by SRB assay relative to control; conditions: HOP-62, 48 h, read-out: Activity
[14] = test system: ACHN; test: Growth inhibition of human ACHN cells assessed as cell growth at 0.01 uM after 48 hrs by SRB assay relative to control; conditions: read-out: Activity
[15] = test system: OVCAR-5; test: Growth inhibition of human OVCAR5 cells assessed as cell growth at 1 uM after 48 hrs by SRB assay relative to control; conditions: OVCAR-5, 48 h, read-out: Activity
[16] = test system: T47D; test: Growth inhibition of human T47D cells assessed as cell growth at 0.1 uM after 48 hrs by SRB assay relative to control; conditions: read-out: Activity
[17] = test system: A549; test: Growth inhibition of human A549/ATCC cells assessed as cell growth at 0.01 uM after 48 hrs by SRB assay relative to control; conditions: A549, 48 h, read-out: Activity
[18] = test system: NCI-H322M; test: Growth inhibition of human NCI-H322M cells assessed as cell growth at 0.1 uM after 48 hrs by SRB assay relative to control; conditions: read-out: Activity
[19] = test system: SF-268; test: Growth inhibition of human SF268 cells assessed as cell growth at 100 uM after 48 hrs by SRB assay relative to control; conditions: SF-268, 48 h, read-out: Activity
[20] = test system: SW-620; test: Growth inhibition of human SW620 cells assessed as cell growth at 100 uM after 48 hrs by SRB assay relative to control; conditions: SW-620, 48 h, read-out: Activity
[21] = test system: COLO 205; test: Growth inhibition of human COLO205 cells assessed as cell growth at 1 uM after 48 hrs by SRB assay relative to control; conditions: COLO 205, 48 h, read-out: Activity
[22] = test system: HCT-116; test: Growth inhibition of human HCT116 cells assessed as cell growth at 100 uM after 48 hrs by SRB assay relative to control; conditions: HCT-116, 48 h, read-out: Activity
[23] = test system: CCRF-CEM; test: Growth inhibition of human CCRF-CEM cells assessed as cell growth at 1 uM after 48 hrs by SRB assay relative to control; conditions: read-out: Activity
[24] = test system: 786-0; test: Growth inhibition of human 786-0 cells assessed as cell growth at 100 uM after 48 hrs by SRB assay relative to control; conditions: 786-0, 48 h, read-out: Activity
[25] = test system: NCI-H23; test: Growth inhibition of human NCI-H23 cells assessed as cell growth at 0.01 uM after 48 hrs by SRB assay relative to control; conditions: NCI-H23, 48 h, read-out: Activity
[26] = test system: M14; test: Growth inhibition of human M14 cells assessed as cell growth at 1 uM after 48 hrs by SRB assay relative to control; conditions: M14, 48 h, read-out: Activity
[27] = test system: RXF 393; test: Growth inhibition of human RXF393 cells assessed as cell growth at 100 uM after 48 hrs by SRB assay relative to control; conditions: RXF 393, 48 h, read-out: Activity
[28] = test system: SF-295; test: Growth inhibition of human SF295 cells assessed as cell growth at 100 uM after 48 hrs by SRB assay relative to control; conditions: SF-295, 48 h, read-out: Activity
[29] = test system: HCC 2998; test: Growth inhibition of human HCC2998 cells assessed as cell growth at 100 uM after 48 hrs by SRB assay relative to control; conditions: HCC 2998, 48 h, read-out: Activity
[30] = test system: NCI-H522; test: Growth inhibition of human NCI-H522 cells assessed as cell growth at 100 uM after 48 hrs by SRB assay relative to control; conditions: NCI-H522, 48 h, read-out: Activity
[31] = test system: Hs-578T; test: Growth inhibition of human Hs 578T cells assessed as cell growth at 0.1 uM after 48 hrs by SRB assay relative to control; conditions: read-out: Activity
[32] = test system: 786-0; test: Growth inhibition of human 786-0 cells assessed as cell growth at 0.01 uM after 48 hrs by SRB assay relative to control; conditions: 786-0, 48 h, read-out: Activity
[33] = test system: PC-3; test: Growth inhibition of human PC3 cells assessed as cell growth at 0.01 uM after 48 hrs by SRB assay relative to control; conditions: PC-3, 48 h, read-out: Activity
[34] = test system: MOLT-4; test: Growth inhibition of human MOLT4 cells assessed as cell growth at 0.1 uM after 48 hrs by SRB assay relative to control; conditions: MOLT-4, 48 h, read-out: Activity
[35] = read-out: LC50 (the source's name)
[36] = read-out: pLC50 (the source's name) (converted)

## COc1ccc2c(c1)CCc1n[nH]c(-c3cc(OC)c(OC)c(OC)c3)c1-2
[1]
  growth at 1 µM: -16%
[2]
  growth at 100 µM: -66%
[3]; [35]
  CC50: > 100 µM
[3]; read-out: TGI
  TGI: > 100 µM
[3]; [36]
  CC50: > 100 µM
[3]; read-out: pTGI
  TGI: > 100 µM
[4]
  growth at 100 µM: -78%
[5]; read-out: GI50
  GI50: < 0.01 µM
[5]; read-out: LC50
  LC50: > 100 µM
[5]; read-out: TGI
  TGI: 21.7 µM
[5]; read-out: pGI50 (converted)
  GI50: < 0.01 µM
[5]; read-out: pLC50 (converted)
  LC50: > 100 µM
[5]; read-out: pTGI (converted)
  TGI: 21.9 µM
[6]; read-out: GI50
  GI50: < 0.01 µM
[6]; [35]
  CC50: > 100 µM
[6]; read-out: TGI
  TGI: < 0.01 µM
[6]; read-out: pGI50 (converted)
  GI50: < 0.01 µM
[6]; [36]
  CC50: > 100 µM
[6]; read-out: pTGI
  TGI: < 0.01 µM
[7]
  growth at 10 µM: -6%
[8]
  growth at 0.01 µM: 23%
[9]
  growth at 0.1 µM: 10%
[10]
  growth at 0.1 µM: 14%
[11]
  growth at 100 µM: -49%
[12]
  growth at 100 µM: -71%
[13]
  growth at 100 µM: -76%
[14]
  growth at 0.01 µM: 30%
[15]
  growth at 1 µM: 43%
[16]
  growth at 0.1 µM: 74%
[17]
  growth at 0.01 µM: 14%
[18]
  growth at 0.1 µM: 40%
[19]
  growth at 100 µM: -25%
[20]
  growth at 100 µM: -75%
[21]
  growth at 1 µM: -56%
[22]
  growth at 100 µM: -66%
[23]
  growth at 1 µM: 42%
[24]
  growth at 100 µM: -48%
[25]
  growth at 0.01 µM: 14%
[26]
  growth at 1 µM: 4%
[27]
  growth at 100 µM: -68%
[28]
  growth at 100 µM: -61%
[29]
  growth at 100 µM: -80%
[30]
  growth at 100 µM: -66%
[31]
  growth at 0.1 µM: 17%
[32]
  growth at 0.01 µM: 24%
[33]
  growth at 0.01 µM: 20%
[34]
  growth at 0.1 µM: 35%
